Experimental data reported in US8317991B2, “Process for electrokinetic migration through liquid membranes” (priority 2005, dated 2012).
Counter-ions that a name gives are not always drawn.

Legend:
[1] = 1-octanol/water partition coefficient; Clarkes Analysis of Drugs and Poisons; cited from earlier work
[2] = Electrokinetic cross-membrane isolation (ECMI) of basic drugs; recovery in acceptor solution by capillary electrophoresis; assay type: physicochemical; parameters: key to Recovery: *: Recovery was observed, but results were unreliable due to large standard deviations; conditions: for Recovery: liquid membrane 2-octanone, 300 V, 5 min, 5.2 mm vial; for Enrichment: optimal ECMI, 300 μl sample to 30 μl acceptor
Procedure: The DC power supply used was a model XFR 300-9 (Xantrex, Burnaby, BC, Canada) with a programmable voltage in the range 0 to 300 V, providing currents in the range 0 to 9 A. Simple steel wires with a diameter of 0.2 mm were used as electrodes in the sample and acceptor solutions, and were connected to the power supply. As sample compartment, 800 μL polypropylene vials with cap were used with a height of 35 mm and with an internal diameter of 5.2 mm (unknown supplier). […] The porous hollow fiber used for immobilization of the artificial liquid membrane and for housing the acceptor solution was a PP Q3/2 polypropylene hollow fiber (Membrana, Wuppertal, Germany) with an internal diameter of 1.2 mm, with a 200 μm wall thickness, and with 0.2 μm pores. The ECMI was agitated at 1200 rpm during the experiments with a Vibramax 100 agitator (Heidolph, Kelheim, Germany).
ECMI was performed according to the following procedure; 300 μl acidified sample solution was filled into a polypropylene vial, and the positive electrode was placed in the sample. A 3.1 cm piece of polypropylene hollow fiber was closed in the lower end by mechanical pressure, whereas the upper end was connected to a 2.2 cm length pipette tip of polypropylene as a guiding tube. The hollow fiber and the guiding tube were then inserted through the cap of the sample vial. The hollow fiber was dipped for 5 s in the organic solvent serving as the artificial liquid membrane (typically 2-nitrophenyl octyl ether, nitrobenzene, 1-isopropyl nitrobenzene, octanol or heptanol), and excess of solvent was removed with a medical wipe. With a micro syringe, 30 μL of acceptor solution was filled into the hollow fiber, and the negative electrode was placed in the acceptor solution. Finally, the hollow fiber with acceptor solution was placed into the sample, and voltage (typically 300 V) was applied for 5 minutes. After electrokinetic cross-membrane isolation, the acceptor solution was collected with a micro syringe, and was transferred to a micro insert for the capillary electrophoresis instrument.
Capillary electrophoresis was performed with a MDQ instrument (Beckman, Fullerton, Calif., USA) equipped with a UV-detector. Separations were accomplished in a 75-μm-i.d. fused-silica capillary with an effective length of 20 cm (Beckman). The running buffer was 15 mM phosphate adjusted to pH 2.7 with ortho-phosphoric acid. The instrument was operated at 20 kV, which generated a current level of approximately 50 μA. Samples were introduced by hydrodynamic injection at 0.5 psi for 5 s. Detection was accomplished at 200 nm utilizing a 100×800 μm slit.
Recovery (R) during the cross-membrane isolation was calculated according to the following equation for each analyte: R=na,final/ns,initial×100%=(Va/Vs)(Ca,final/Cs,initial)·100% (1) where ns,initial and na,final are the number of moles of analyte originally present in the sample and the number of moles of analyte finally collected in the acceptor solution, respectively. Va is the volume of acceptor phase, Vs is the volume of sample, Ca,final is the final concentration of analyte in the acceptor phase, and Cs,initial is the initial analyte concentration within the sample.
Enrichment (E) during the cross-membrane isolation was calculated according to the following equation for each analyte: E=Ca,final/Cs,initial (2) Results and Discussion Initial Experiments.

[3] = Clarkes Analysis of Drugs and Poisons; cited from earlier work

| Compound | log P [1] | Recovery [2] | Enrichment [2] | pKa [3] |
| --- | --- | --- | --- | --- |
| CC(=O)Nc1ccc(OCC(O)CNC(C)C)cc1 (centres unmarked) [Practolol, practolol] | −1.3 |  |  |  |
| c1ccc(C2(N3CCCCC3)CCCCC2)cc1 [Phencyclidine, phencyclidine] | 4.7 |  |  |  |
| CCC(=O)C(CC(C)N(C)C)(c1ccccc1)c1ccccc1 (centres unmarked) [Methadone, methadone hydrochloride] |  | * | 7.9 |  |
| CC(CN1c2ccccc2Sc2ccccc21)N(C)C (centres unmarked) [Promethazine, promethazine] | 2.9 |  |  |  |
| OCCOCCN1CCN(C(c2ccccc2)c2ccc(Cl)cc2)CC1 (centres unmarked) [Hydroxyzine, hydroxyzine] | 2.4 |  |  |  |
| CN1CCC[C@@H]1CCO[C@](C)(c1ccccc1)c1ccc(Cl)cc1 [Clemastine, clemastine] | 5.7 |  |  | 10.2 |
| CN(C)CCCN1c2ccccc2CCc2ccc(Cl)cc21 [Clomipramine, clomipramine] | 5.2 |  |  |  |
| OCCN1CCN(CCCN2c3ccccc3Sc3ccc(C(F)(F)F)cc32)CC1 [Fluphenazine, fluphenazine] | 3.5 |  |  |  |
| O=C(CCCN1CCC(O)(c2ccc(Cl)cc2)CC1)c1ccc(F)cc1 [Haloperidol, haloperidol] | 3.2 | * | 7.2 |  |
| COc1ccc(CN(CCN(C)C)c2ccccn2)cc1 [Mepyramine, mepyramine] | 2.8 |  |  |  |
| CN(C)C(=O)C(CCN1CCC(O)(c2ccc(Cl)cc2)CC1)(c1ccccc1)c1ccccc1 [Loperamide, loperamide hydrochloride] | 5.2 | * | 7.6 | 8.1 |
| CCOC(=O)C1(c2ccccc2)CCN(C)CC1 [Pethidine, Pethidine hydrochloride] |  | * | 7.0 |  |
| CN[C@@H](C)Cc1ccccc1 [Metamfetamine, methamphetamine sulphate] |  |  |  | 10.1 |
| C[C@H](N)[C@H](O)c1cccc(O)c1 [Metaraminol, metaraminol hydrochloride] | −0.3 |  |  | 8.6 |
| CNCCC=C1c2ccccc2CCc2ccccc21 [Nortriptyline, nortriptyline hydrochloride] | 1.7 | * | 7.0 |  |
